In patent US10370371B2, “Substituted pyrimidine Bmi-1 inhibitors” (PTC Therapeutics, Inc., priority 2013, dated 2019) one finds EC50 and melting point data, which are given here for ten compounds.

One data set relates to Bmi-1 protein. The experiment in a line: Sandwich ELISA Assay (Bmi-1 protein level in HT-1080 cells). Format: cell-based. Put shortly: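 HT-1080 cells were treated with compounds (0.5% DMSO final) for 40-48 h at 37 °C. Lysates were assayed by sandwich ELISA: mouse anti-Bmi-1 capture, rabbit anti-Bmi-1 and HRP anti-rabbit detection, TMB read at OD450 (OD570 reference). Levels were quantified against a recombinant GST-Bmi-1 standard curve (125-8000 pg/mL).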
(An ELISA detects its analyte on a solid surface through an enzyme-linked reagent.)

The compound `CCc1nc2ccc(F)cc2n1-c1cc(N)nc(Nc2ccc(OC)c(F)c2)n1` [Cpd 168, 6-(2-ethyl-6-fluoro-1H-benzimidazol-1-yl)-N^2-(3-fluoro-4-methoxyphenyl)pyrimidine-2,4-diamine] gave a melting point of 129 to 131 °C. This compound showed an EC50 in the data set on Bmi-1 protein of 1 to 10 nM.

As for `Cc1nc2ccc(F)cn2c1-c1cc(N)nc(Nc2ccc(F)cc2)n1` [Cpd 169, 6-(6-fluoro-2-methylimidazo[1,2-a]pyridin-3-yl)-N^2-(4-fluorophenyl)pyrimidine-2,4-diamine], the melting point was 250 to 253 °C. Besides, the EC50 in the data set with Bmi-1 protein fell in the range of 100 to 3000 nM.

In turn, `Cc1nc2ccc(F)cn2c1-c1cc(N)nc(Nc2ccc(Cl)cc2)n1` [Cpd 172, N^2-(4-chlorophenyl)-6-(6-fluoro-2-methylimidazo[1,2-a]pyridin-3-yl)pyrimidine-2,4-diamine] came in with a melting point of 243 to 246 °C. The EC50 with Bmi-1 protein fell in the range of 1 to 10 nM.

`CCc1nc2ccc(F)cc2n1-c1cc(N)nc(Nc2ccc(Cl)c(F)c2)n1` [Cpd 175, N^2-(4-chloro-3-fluorophenyl)-6-(2-ethyl-6-fluoro-1H-benzimidazol-1-yl)pyrimidine-2,4-diamine]: the melting point was 209 to 211 °C. The compound also returned an EC50 in the data set on Bmi-1 protein of 10 to 100 nM.

For `Cc1cc2nc(C)n(-c3cc(N)nc(Nc4ccc(Cl)cc4)n3)c2cc1C` [Cpd 184, N^2-(4-chlorophenyl)-6-(2,5,6-trimethyl-1H-benzimidazol-1-yl)pyrimidine-2,4-diamine], the melting point was in the range of 111 to 112 °C. In the data set with Bmi-1 protein, this compound registered an EC50 of 100 to 3000 nM.

Compound `COc1ccc(Nc2nc(N)cc(-n3c(C)nc4cc(C)c(C)cc43)n2)cc1` [Cpd 185, N^2-(4-methoxyphenyl)-6-(2,5,6-trimethyl-1H-benzimidazol-1-yl)pyrimidine-2,4-diamine] had a melting point of 113 to 114 °C. Besides, the EC50 in the data set with Bmi-1 protein was in the range of 10 to 100 nM.

`COc1ccc(Nc2nc(N)cc(-n3c(C)nc4cc(C)c(C)cc43)n2)cc1F` [Cpd 186, N^2-(3-fluoro-4-methoxyphenyl)-6-(2,5,6-trimethyl-1H-benzimidazol-1-yl)pyrimidine-2,4-diamine] showed a melting point of 120 to 121 °C. Also, the EC50 in the data set with Bmi-1 protein is 10 to 100 nM.

The compound `COc1ccc(Nc2nc(N)cc(-n3c(C)nc4cc(C)c(C)cc43)n2)cc1Cl` [Cpd 187, N^2-(3-chloro-4-methoxyphenyl)-6-(2,5,6-trimethyl-1H-benzimidazol-1-yl)pyrimidine-2,4-diamine] registered a melting point of 129 to 131 °C. Further, the EC50 in the data set with Bmi-1 protein was 10 to 100 nM.

In turn, `Cc1cc2nc(C)n(-c3cc(N)nc(Nc4ccc(OC(F)F)cc4)n3)c2cc1C` [Cpd 188, N^2-[4-(difluoromethoxy)phenyl]-6-(2,5,6-trimethyl-1H-benzimidazol-1-yl)pyrimidine-2,4-diamine] registered a melting point of 89 to 91 °C. This compound came in with an EC50 with Bmi-1 protein of 10 to 100 nM.

`COc1ccc(Nc2nc(N)cc(-c3c(C)noc3C)n2)cc1` [Cpd 189, 6-(3,5-dimethyl-1,2-oxazol-4-yl)-N^2-(4-methoxyphenyl)pyrimidine-2,4-diamine] displayed a melting point of 89 to 91 °C. In the data set with Bmi-1 protein, this compound registered an EC50 of 100 to 3000 nM.

As usually defined, the EC50 is the concentration giving half of the maximal effect. As a reminder, the melting point is the temperature, or range, at which the solid turns liquid.
